Source: the NIST ThermoML archive (doi:10.1016/j.tca.2012.05.025)
Numbers after ± are expanded uncertainties.

Test: refractive index (Na D-line) (dimensionless); xn = mol fraction of the nth substance listed
Conditions: 101 kPa, Liquid, Standard Abbe refractometry

CN(C)CCCO [3-dimethylamino-1-propanol] + O
refractive index
Conditions	x1 = 0.098	x1 = 0.197	x1 = 0.293	x1 = 0.398	x1 = 0.5	x1 = 0.598	x1 = 0.7	x1 = 0.795	x1 = 0.9	x1 = 1
293.15 K	1.3569 ± 0.005	1.3653 ± 0.005	1.3763 ± 0.005	1.4033 ± 0.005	1.4193 ± 0.005	1.4284 ± 0.005	1.4345 ± 0.005	1.4393 ± 0.005	1.443 ± 0.005	1.4368 ± 0.005
298.15 K	1.3562 ± 0.005	1.3644 ± 0.005	1.3752 ± 0.005	1.4018 ± 0.005	1.4172 ± 0.005	1.4268 ± 0.005	1.4329 ± 0.005	1.4377 ± 0.005	1.4405 ± 0.005	1.4347 ± 0.005
303.15 K	1.35534 ± 0.005	1.3635 ± 0.005	1.3742 ± 0.005	1.4004 ± 0.005	1.4155 ± 0.005	1.4251 ± 0.005	1.431 ± 0.005	1.4359 ± 0.005	1.439 ± 0.005	1.4326 ± 0.005
308.15 K	1.3545 ± 0.005	1.3625 ± 0.005	1.3731 ± 0.005	1.3987 ± 0.005	1.4139 ± 0.005	1.4233 ± 0.005	1.4291 ± 0.005	1.4338 ± 0.005	1.4369 ± 0.005	1.4305 ± 0.005
313.15 K	1.3537 ± 0.005	1.3615 ± 0.005	1.3719 ± 0.005	1.3972 ± 0.005	1.4121 ± 0.005	1.4216 ± 0.005	1.4273 ± 0.005	1.4319 ± 0.005	1.4349 ± 0.005	1.4285 ± 0.005
318.15 K	1.3528 ± 0.005	1.3605 ± 0.005	1.3708 ± 0.005	1.3956 ± 0.005	1.4105 ± 0.005	1.4199 ± 0.005	1.4255 ± 0.005	1.4302 ± 0.005	1.4324 ± 0.005	1.4264 ± 0.005
323.15 K	1.3517 ± 0.005	1.3593 ± 0.005	1.3696 ± 0.005	1.3947 ± 0.005	1.4088 ± 0.005	1.418 ± 0.005	1.4239 ± 0.005	1.4286 ± 0.005	1.4315 ± 0.005	1.4243 ± 0.005
328.15 K	1.3506 ± 0.005	1.3582 ± 0.005	1.3682 ± 0.005	1.3925 ± 0.005	1.4072 ± 0.005	1.4164 ± 0.005	1.4226 ± 0.005	1.427 ± 0.005	1.4301 ± 0.005	1.4222 ± 0.005
333.15 K	1.3502 ± 0.005	1.3571 ± 0.005	1.3671 ± 0.005	1.391 ± 0.005	1.4056 ± 0.005	1.4146 ± 0.005	1.4204 ± 0.005	1.4245 ± 0.005	1.4278 ± 0.005	1.42 ± 0.005
